This note sets out measurements from patent publication US9000159B2 (Glenmark Pharmaceuticals, S.A., priority 2009, dated 2015).

The assay has as its target T1, Human TRPA1 (Homo sapiens, UniProt O75762).
T1 construct: expressed in transfected cells; host or cells: CHO cells
Put plainly: 45Calcium uptake assay: inhibition of AITC induced cellular uptake of radioactive calcium. It is filed as cell-based. The conditions noted are these: AITC (30 μM) induced 45Ca uptake, Human TRPA1 expressing CHO cells; for inhibition at 1 µM: read-out: Percentage inhibition at 1.0 μM; for inhibition at 10 µM: read-out: Percentage inhibition at 10.0 μM; for IC50: read-out: Human IC50 value (range). An excerpt:
The illustrative examples of the present invention are screened for TRPA1 activity according to a modified procedure described in (a) Tóth, A. et al., Life Sciences, 2003, 73, 487-498. (b) McNamara C, R. et al., Proc. Natl. Acad. Sci. U.S.A., 2007, 104, 13525-13530. The screening of the compounds can be carried out by other methods and procedures known to persons skilled in the art.
Screening for TRPA1 Antagonist Using the ^45Calcium Uptake Assay
The inhibition of TRPA1 receptor activation was measured as inhibition of allyl isothiocyanate (AITC) induced cellular uptake of radioactive calcium. Test compounds were dissolved in DMSO to prepare 10 mM stock solution and then diluted using plain medium with 0.1% BSA and 1.8 mM CaCl2 to get desired concentration. Final concentration of DMSO in the reaction was 0.5% (v/v). Human TRPA1 expressing CHO cells were grown in F-12 DMEM medium with 10% FBS, 1% penicillin-streptomycin solution, 400 μg/ml of G-418. Cells were seeded 24 h prior to the assay in 96 well plates so as to get ˜50,000 cells per well on the day of experiment. Cells were treated with test compounds for 10 min followed by addition of AITC at a final concentration of 30 μM and 5 μCi/ml ^45Ca^+2 for 3 min. Cells were washed and lysed using buffer containing 1% Triton X-100, 0.1% deoxycholate and 0.1% SDS. Radioactivity in the lysate was measured in Packard Top count after addition of liquid scintillant. Concentration response curves were plotted as a % of maximal response obtained in the absence of test antagonist. IC50 value was calculated from concentration response curve by nonlinear regression analysis using GraphPad PRISM software.

T1 sequence (O75762 whole entry): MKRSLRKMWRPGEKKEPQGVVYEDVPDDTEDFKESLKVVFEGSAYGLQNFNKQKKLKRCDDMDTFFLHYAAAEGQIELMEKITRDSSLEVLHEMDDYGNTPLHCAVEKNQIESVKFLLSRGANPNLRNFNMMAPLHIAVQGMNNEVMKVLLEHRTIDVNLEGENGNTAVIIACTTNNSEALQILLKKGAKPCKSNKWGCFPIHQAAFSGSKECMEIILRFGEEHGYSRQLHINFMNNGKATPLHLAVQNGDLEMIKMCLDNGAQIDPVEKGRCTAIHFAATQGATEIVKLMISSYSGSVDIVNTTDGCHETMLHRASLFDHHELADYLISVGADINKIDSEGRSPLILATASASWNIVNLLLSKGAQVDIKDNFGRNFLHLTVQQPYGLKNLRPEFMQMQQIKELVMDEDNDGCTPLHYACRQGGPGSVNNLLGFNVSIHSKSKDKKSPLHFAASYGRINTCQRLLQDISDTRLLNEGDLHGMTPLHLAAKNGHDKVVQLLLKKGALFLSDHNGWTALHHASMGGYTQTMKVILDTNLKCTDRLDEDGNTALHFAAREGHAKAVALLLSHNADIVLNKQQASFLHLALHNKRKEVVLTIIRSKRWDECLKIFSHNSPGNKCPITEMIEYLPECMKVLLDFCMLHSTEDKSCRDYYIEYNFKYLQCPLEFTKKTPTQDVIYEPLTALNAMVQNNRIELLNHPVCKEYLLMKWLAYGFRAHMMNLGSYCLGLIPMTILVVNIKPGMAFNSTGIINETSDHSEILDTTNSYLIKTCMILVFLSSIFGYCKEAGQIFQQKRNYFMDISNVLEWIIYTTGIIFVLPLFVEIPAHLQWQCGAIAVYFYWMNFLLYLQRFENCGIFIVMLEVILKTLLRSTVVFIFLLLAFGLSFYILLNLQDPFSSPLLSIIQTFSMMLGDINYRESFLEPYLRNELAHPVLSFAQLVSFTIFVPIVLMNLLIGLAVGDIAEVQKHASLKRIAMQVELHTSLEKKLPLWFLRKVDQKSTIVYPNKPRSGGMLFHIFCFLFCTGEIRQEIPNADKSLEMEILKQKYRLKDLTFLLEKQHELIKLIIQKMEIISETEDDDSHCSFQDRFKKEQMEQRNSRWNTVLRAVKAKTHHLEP

As a reminder, the inhibition is the drop in the measured response relative to a control, in per cent. On to `Cn1c(=O)c2c(ccn2CC(=O)Nc2nc(-c3cc(F)c(OCc4ccccc4C(F)(F)F)c(F)c3)cs2)n(C)c1=O` [Example 20, 2-(1,3-Dimethyl-2,4-dioxo-1,2,3,4-tetrahydro-5H-pyrrolo[3,2-d]pyrimidin-5-yl)-N-{4-[3,5-difluoro-4-[2-(trifluoromethyl)benzyloxy]phenyl)-1,3-thiazol-2-yl}acetamide], for which the inhibition at 1 µM (1.0 μM test compound) was found to be 22.6%. Besides, for the setting “10.0 μM test compound”, the inhibition at 10 µM was 67.7%.

As a reminder, the IC50 is the concentration needed to halve the response being measured. `Cc1cc2c(c(=O)n(C)c(=O)n2C)n1CC(=O)Nc1nc(-c2cc(F)c(OCC(F)(F)F)c(Cl)c2)cs1` [Example 30]: the IC50 was less than 50 nM. Further, the inhibition at 1 µM (1.0 μM test compound) was 93.6%. The inhibition at 10 µM (10.0 μM test compound) is 100%.

Take `Cn1nc2c(c1CC(=O)Nc1nc(-c3ccc(F)c(OC(F)(F)F)c3)cs1)c(=O)n(C)c(=O)n2C` [Example 60, N-{4-[4-Fluoro-3-(trifluoromethoxy)phenyl]-1,3-thiazol-2-yl}-2-(2,5,7-trimethyl-4,6-dioxo-4,5,6,7-tetrahydro-2H-pyrazolo[3,4-d]pyrimidin-3-yl)acetamide]: the IC50 was less than 50 nM. The inhibition at 1 µM (1.0 μM test compound) came to 93.4%. Further, under “10.0 μM test compound”, the inhibition at 10 µM was 97.2%.

`Cn1c(=O)c2c(ccn2CC(=O)Nc2nc(-c3ccc(F)c(C(F)(F)F)c3F)cs2)n(C)c1=O` [Example 9, 2-(1,3-Dimethyl-2,4-dioxo-1,2,3,4-tetrahydro-5H-pyrrolo[3,2-d]pyrimidin-5-yl)-N-{4-[2,4-difluorophenyl-3-trifluoromethyl]-1,3-thiazol-2-yl}acetamide]: the inhibition at 1 µM (1.0 μM test compound) was found to be 60.7%. For the same compound, the inhibition at 10 µM (10.0 μM test compound) is 91.3%.

Consider `Cn1nc2c(c1CC(=O)Nc1nc(-c3cc(F)cc(C(F)(F)F)c3)cs1)c(=O)n(C)c(=O)n2C` [Example 58, N-{4-[3-Fluoro-5-(trifluoromethyl)phenyl]-1,3-thiazol-2-yl}-2-(2,5,7-trimethyl-4,6-dioxo-4,5,6,7-tetrahydro-2H-pyrazolo[3,4-d]pyrimidin-3-yl)acetamide], for which the IC50 is less than 50 nM. The inhibition at 1 µM (1.0 μM test compound) amounted to 94.6%. Also, the inhibition at 10 µM (10.0 μM test compound) was 99.2%.

As for `Cn1c(=O)c2c(cnn2CC(=O)Nc2nc(-c3ccc(C(F)(F)F)c(F)c3)cs2)n(C)c1=O` [Example 68, 2-(4,6-Dimethyl-5,7-dioxo-4,5,6,7-tetrahydro-1H-pyrazolo[4,3-d]pyrimidin-1-yl)-N-{4-[3-fluoro-4-(trifluoromethyl)phenyl]-1,3-thiazol-2-yl}acetamide], the IC50 is more than 100 nM. In addition, where the note is “1.0 μM test compound”, the inhibition at 1 µM was 91.3%. The inhibition at 10 µM (10.0 μM test compound) worked out at 99.4%.

With `CC(C)CCOc1c(F)cc(-c2csc(NC(=O)Cn3ccc4c3c(=O)n(C)c(=O)n4C)n2)cc1F` [Example 7, N-{4-[3,5-Difluoro-4-(3-methylbutoxy)phenyl]-1,3-thiazol-2-yl}-2-(1,3-dimethyl-2,4-dioxo-1,2,3,4-tetrahydro-5H-pyrrolo[3,2-d]pyrimidin-5-yl)acetamide], under “1.0 μM test compound”, the inhibition at 1 µM came out at 35.5%. Further, the inhibition at 10 µM (10.0 μM test compound) was 37.3%.

In the case of `Cn1c(=O)c2c(ccn2CC(=O)Nc2nc(-c3ccc(F)c(C(F)(F)F)c3)cs2)n(C)c1=O` [Example 2, 2-(1,3-Dimethyl-2,4-dioxo-1,2,3,4-tetrahydro-5H-pyrrolo[3,2-d]pyrimidin-5-yl)-N-{4-[4-fluoro-3-(trifluoromethyl)phenyl]-1,3-thiazol-2-yl}acetamide], the inhibition at 1 µM (1.0 μM test compound) worked out at 35.4%. Where the note is “10.0 μM test compound”, the inhibition at 10 µM was 79.5%.

Turning to `Cn1c(=O)c2c(cnn2CC(=O)Nc2nc(-c3cc(Cl)c(OCC(C)(C)C)c(Cl)c3)cs2)n(C)c1=O` [Example 79, N-{4-[3,5-Dichloro-4-(2,2-dimethylpropoxy)phenyl]-1,3-thiazol-2-yl}-2-(4,6-dimethyl-5,7-dioxo-4,5,6,7-tetrahydro-1H-pyrazolo[4,3-d]pyrimidin-1-yl)acetamide], the IC50 was less than 50 nM. Besides, the inhibition at 1 µM (1.0 μM test compound) is 100%. In addition, the inhibition at 10 µM (10.0 μM test compound) is 100%.

On to `Cn1c(=O)c2c(cnn2CC(=O)Nc2cc(-c3ccc(Br)cc3)on2)n(C)c1=O` [Example 84, N-[5-(4-Bromophenyl)isoxazol-3-yl]-2-(4,6-dimethyl-5,7-dioxo-4,5,6,7,-tetrahydro-1H-pyrazolo[4,3-d]pyrimidin-1-yl)acetamide], for which, where the note is “1.0 μM test compound”, the inhibition at 1 µM was 17.2%. Besides, for the setting “10.0 μM test compound”, the inhibition at 10 µM amounted to 83.9%.

Turning to `CC(C)COc1c(Cl)cc(-c2csc(NC(=O)Cn3ncc4c3c(=O)n(C)c(=O)n4C)n2)cc1Cl` [Example 75, N-[4-(3,5-Dichloro-4-isobutoxyphenyl)-1,3-thiazol-2-yl]-2-(4,6-dimethyl-5,7-dioxo-4,5,6,7-tetrahydro-1H-pyrazolo[4,3-d]pyrimidin-1-yl)acetamide], the IC50 is less than 50 nM. Besides, the inhibition at 1 µM (1.0 μM test compound) was 99.3%. In addition, the inhibition at 10 µM (10.0 μM test compound) is 100%.

Take “N-{4-[3,5-Dichloro-4-isobutoxyphenyl]-1,3-thiazol-2-yl}-2-(4,6-dimethyl-5,7-dioxo-4,5,6,7-tetrahydro-1H-pyrazolo[4,3-d]pyrimidin-1-yl)acetamide [Example 77]”: the concentration for half-maximal inhibition (IC50) lay within 50 to 100 nM. In addition, the “Percentage inhibition at 1.0 μM” value (1.0 μM test compound) is 89.48%. In addition, the “Percentage inhibition at 10.0 μM” value (10.0 μM test compound) came out at 99.58%.

Consider `Cn1nc2c(c1CC(=O)Nc1nc(-c3cc(F)c(OC(F)F)c(F)c3)cs1)c(=O)n(C)c(=O)n2C` [Example 64, N-{4-[4-(Difluoromethoxy)-3,5-difluorophenyl]-1,3-thiazol-2-yl}-2-(2,5,7-trimethyl-4,6-dioxo-4,5,6,7-tetrahydro-2H-pyrazolo[3,4-d]pyrimidin-3-yl)acetamide], for which the IC50 was less than 50 nM. Besides, the inhibition at 1 µM (1.0 μM test compound) was found to be 97.8%. The inhibition at 10 µM (10.0 μM test compound) was found to be 98.3%.

With `Cn1nc2c(c1CC(=O)Nc1nc(-c3ccc(F)c(C(F)(F)F)c3F)cs1)c(=O)n(C)c(=O)n2C` [Example 63, N-{4-[2,4-Difluoro-3-(trifluoromethyl)phenyl]-1,3-thiazol-2-yl}-2-(2,5,7-trimethyl-4,6-dioxo-4,5,6,7-tetrahydro-2H-pyrazolo[3,4-d]pyrimidin-3-yl)acetamide], the IC50 was less than 50 nM. In addition, the inhibition at 1 µM (1.0 μM test compound) worked out at 95.1%. Further, the inhibition at 10 µM (10.0 μM test compound) was found to be 99.7%.

For the compound `Cn1nc2c(c1CC(=O)Nc1nc3cc(OC(F)(F)F)ccc3s1)c(=O)n(C)c(=O)n2C` [Example 66, N-[5-(Trifluoromethoxy)-1,3-benzothiazol-2-yl]-2-(2,5,7-trimethyl-4,6-dioxo-4,5,6,7-tetrahydro-2H-pyrazolo[3,4-d]pyrimidin-3-yl)acetamide], the inhibition at 1 µM (1.0 μM test compound) was found to be 45%. Also, the inhibition at 10 µM (10.0 μM test compound) was 71.5%.

Turning to `Cn1c(=O)c2c(CC(=O)Nc3nc(-c4cc(F)c(OCC(C)(C)C)c(F)c4)cs3)cn(C)c2n(C)c1=O` [Example 42, N-[4-(3,5-Difluoro-4-(2,2-dimethylpropoxy)phenyl)-1,3-thiazol-2-yl]-2-(1,3,7-trimethyl-2,4-dioxo-2,3,4,7-tetrahydro-1H-pyrrolo[2,3-d]pyrimidin-5-yl)acetamide], the inhibition at 1 µM (1.0 μM test compound) came to 41.1%. Moreover, the inhibition at 10 µM (10.0 μM test compound) is 63.1%.

As for `Cc1cc2c(c(=O)n(C)c(=O)n2C)n1CC(=O)Nc1nc(-c2ccc(F)c(C(F)(F)F)c2F)cs1` [Example 25], the inhibition at 1 µM (1.0 μM test compound) came out at 68.3%. The inhibition at 10 µM (10.0 μM test compound) was 94.8%.

For the compound `Cn1nc2c(c1CC(=O)Nc1nc(-c3ccc(C(F)(F)F)c(F)c3)c[nH]1)c(=O)n(C)c(=O)n2C` [Example 85, N-{4-[3-Fluoro-4-(trifluoromethyl)phenyl]-1H-imidazol-2-yl]-2-(2,5,7-trimethyl-4,6-dioxo-4,5,6,7-tetrahydro-2H-pyrazolo[3,4-d]pyrimidin-3-yl)acetamide], the inhibition at 1 µM (1.0 μM test compound) stood at 44.1%. Further, the inhibition at 10 µM (10.0 μM test compound) is 78.2%.

As for `Cc1cc2c(c(=O)n(C)c(=O)n2C)n1CC(=O)Nc1nc(-c2cc(F)c(OCC(C)(C)C)c(F)c2)cs1` [Example 24, N1-{4-[3,5-Difluoro-4-(2,2-dimethylpropoxy)phenyl]-1,3-thiazol-2-yl}-2-(1,3,6-trimethyl-2,4-dioxo-1,2,3,4-tetrahydro-5H-pyrrolo[3,2-d]pyrimidin-5-yl)acetamide], the IC50 was less than 50 nM. Under “1.0 μM test compound”, the inhibition at 1 µM amounted to 93.9%. In addition, the inhibition at 10 µM (10.0 μM test compound) stood at 99.4%.

In the case of `Cn1c(=O)c2c(cnn2CC(=O)Nc2nc(-c3cc(F)c(OCC(C)(C)C)c(F)c3)cs2)n(C)c1=O` [Example 78, N-{4-[4-(2,2-Dimethylpropoxy)-3,5-difluorophenyl]-1,3-thiazol-2-yl}-2-(4,6-dimethyl-5,7-dioxo-4,5,6,7-tetrahydro-1H-pyrazolo[4,3-d]pyrimidin-1-yl)acetamide], the IC50 is less than 50 nM. Further, where the note is “1.0 μM test compound”, the inhibition at 1 µM amounted to 100%. Besides, under “10.0 μM test compound”, the inhibition at 10 µM worked out at 99.7%.
